Laboratory results: ChEMBL document CHEMBL4507266, “Data for DCP probe BAY-784” (2021)

Experiments:
[1] = biological target: Calcium/calmodulin-dependent protein kinase type 1 (Homo sapiens) (UniProt Q14012); conditions: Compound concentration 1000.0 nM
[2] = biological target: Serine/threonine-protein kinase mTOR (Homo sapiens) (UniProt P42345); conditions: Compound concentration 1000.0 nM
[3] = biological target: Vascular endothelial growth factor receptor 2 (Homo sapiens) (UniProt P35968); conditions: Compound concentration 1000.0 nM
[4] = tested on: Phosphatidylinositol 4,5-bisphosphate 3-kinase catalytic subunit alpha isoform (Homo sapiens), P42336 [I800L]; conditions: Compound concentration 1000.0 nM
[5] = biological target: Cyclin-dependent kinase 9 (Homo sapiens) (UniProt P50750); conditions: Compound concentration 1000.0 nM
[6] = biological target: Serine/threonine-protein kinase BRSK2 (Homo sapiens) (UniProt Q8IWQ3); conditions: Compound concentration 1000.0 nM
[7] = biological target: Inhibitor of nuclear factor kappa-B kinase subunit beta (Homo sapiens) (UniProt O14920); conditions: Compound concentration 1000.0 nM
[8] = biological target: Proto-oncogene tyrosine-protein kinase ROS (Homo sapiens) (UniProt P08922); conditions: Compound concentration 1000.0 nM
[9] = biological target: T1, Alpha-1A adrenergic receptor (Homo sapiens) (UniProt P35348); conditions: Compound concentration 10.0 uM
T1 sequence (whole entry): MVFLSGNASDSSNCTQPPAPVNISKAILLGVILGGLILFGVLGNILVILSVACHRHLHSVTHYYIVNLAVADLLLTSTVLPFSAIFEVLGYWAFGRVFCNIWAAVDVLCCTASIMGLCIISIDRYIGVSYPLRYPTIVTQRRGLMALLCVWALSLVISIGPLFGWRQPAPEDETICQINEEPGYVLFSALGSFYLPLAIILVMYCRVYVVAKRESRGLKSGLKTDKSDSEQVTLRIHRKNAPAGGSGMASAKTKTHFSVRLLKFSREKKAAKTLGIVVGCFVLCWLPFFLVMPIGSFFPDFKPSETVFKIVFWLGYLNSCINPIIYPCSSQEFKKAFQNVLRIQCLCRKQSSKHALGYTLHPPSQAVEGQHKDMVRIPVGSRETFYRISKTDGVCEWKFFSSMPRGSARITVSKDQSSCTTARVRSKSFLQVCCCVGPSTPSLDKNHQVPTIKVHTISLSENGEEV

[10] = biological target: SRSF protein kinase 1 (Homo sapiens) (UniProt Q96SB4); conditions: Compound concentration 1000.0 nM
[11] = biological target: Histamine H3 receptor (Homo sapiens) (UniProt Q9Y5N1); conditions: Compound concentration 10.0 uM
[12] = biological target: Serine/threonine-protein kinase OSR1 (Homo sapiens) (UniProt O95747); conditions: Compound concentration 1000.0 nM
[13] = biological target: Tyrosine-protein kinase ABL1 (Homo sapiens) (UniProt P00519); conditions: Compound concentration 1000.0 nM
[14] = biological target: Serine/threonine-protein kinase DCLK2 (Homo sapiens) (UniProt Q8N568); conditions: Compound concentration 1000.0 nM
[15] = biological target: Tyrosine-protein kinase Fes/Fps (Homo sapiens) (UniProt P07332); conditions: Compound concentration 1000.0 nM
[16] = biological target: 5-hydroxytryptamine receptor 7 (Homo sapiens) (UniProt P34969); conditions: Compound concentration 10.0 uM
[17] = biological target: Casein kinase II subunit alpha (Homo sapiens) (UniProt P68400); conditions: Compound concentration 1000.0 nM
[18] = biological target: Dual specificity tyrosine-phosphorylation-regulated kinase 1A (Homo sapiens) (UniProt Q13627); conditions: Compound concentration 1000.0 nM
[19] = biological target: Mitogen-activated protein kinase kinase kinase 1 (Homo sapiens) (UniProt Q13233); conditions: Compound concentration 1000.0 nM
[20] = biological target: Tyrosine-protein kinase JAK1 (Homo sapiens) (UniProt P23458); conditions: Compound concentration 1000.0 nM
[21] = tested on: Epidermal growth factor receptor (Homo sapiens), P00533 [UNDEFINED MUTATION]; conditions: Compound concentration 1000.0 nM
[22] = biological target: RAC-gamma serine/threonine-protein kinase (Homo sapiens) (UniProt Q9Y243); conditions: Compound concentration 1000.0 nM
[23] = biological target: Tyrosine-protein kinase ABL1 (Homo sapiens) (UniProt P00519); conditions: Compound concentration 1000.0 nM; remark: listed apart in the source
[24] = biological target: Mitogen-activated protein kinase kinase kinase kinase 2 (Homo sapiens) (UniProt Q12851); conditions: Compound concentration 1000.0 nM
[25] = biological target: Phosphatidylinositol 3-kinase C2 domain-containing subunit gamma (Homo sapiens) (UniProt O75747); conditions: Compound concentration 1000.0 nM
[26] = biological target: Cyclin-dependent kinase 7 (Homo sapiens) (UniProt P50613); conditions: Compound concentration 1000.0 nM
[27] = biological target: Activin receptor type-1-like (Homo sapiens) (UniProt P37023); conditions: Compound concentration 1000.0 nM
[28] = tested on: Proto-oncogene tyrosine-protein kinase receptor Ret (Homo sapiens), P07949 [V804L]; conditions: Compound concentration 1000.0 nM
[29] = biological target: Phosphatidylinositol 5-phosphate 4-kinase type-2 beta (Homo sapiens) (UniProt P78356); conditions: Compound concentration 1000.0 nM
[30] = biological target: Glycogen synthase kinase-3 alpha (Homo sapiens) (UniProt P49840); conditions: Compound concentration 1000.0 nM
[31] = tested on: Phosphatidylinositol 4,5-bisphosphate 3-kinase catalytic subunit alpha isoform (Homo sapiens), P42336 [E542K]; conditions: Compound concentration 1000.0 nM
[32] = biological target: Wee1-like protein kinase 2 (Homo sapiens) (UniProt P0C1S8); conditions: Compound concentration 1000.0 nM
[33] = biological target: Protein kinase C theta type (Homo sapiens) (UniProt Q04759); conditions: Compound concentration 1000.0 nM
[34] = biological target: Activin receptor type-1 (Homo sapiens) (UniProt Q04771); conditions: Compound concentration 1000.0 nM
[35] = biological target: Casein kinase I isoform alpha (Homo sapiens) (UniProt P48729); conditions: Compound concentration 1000.0 nM
[36] = biological target: Serine/threonine-protein kinase Nek7 (Homo sapiens) (UniProt Q8TDX7); conditions: Compound concentration 1000.0 nM
[37] = tested on: Tyrosine-protein kinase ABL1 (Homo sapiens), P00519 [H396P]; conditions: Compound concentration 1000.0 nM
[38] = tested on: Tyrosine-protein kinase ABL1 (Homo sapiens), P00519 [Q252H]; conditions: Compound concentration 1000.0 nM
[39] = biological target: Serine/threonine-protein kinase BRSK1 (Homo sapiens) (UniProt Q8TDC3); conditions: Compound concentration 1000.0 nM

Sequence of Vascular endothelial growth factor receptor 2 (Homo sapiens) (P35968 whole entry, canonical isoform): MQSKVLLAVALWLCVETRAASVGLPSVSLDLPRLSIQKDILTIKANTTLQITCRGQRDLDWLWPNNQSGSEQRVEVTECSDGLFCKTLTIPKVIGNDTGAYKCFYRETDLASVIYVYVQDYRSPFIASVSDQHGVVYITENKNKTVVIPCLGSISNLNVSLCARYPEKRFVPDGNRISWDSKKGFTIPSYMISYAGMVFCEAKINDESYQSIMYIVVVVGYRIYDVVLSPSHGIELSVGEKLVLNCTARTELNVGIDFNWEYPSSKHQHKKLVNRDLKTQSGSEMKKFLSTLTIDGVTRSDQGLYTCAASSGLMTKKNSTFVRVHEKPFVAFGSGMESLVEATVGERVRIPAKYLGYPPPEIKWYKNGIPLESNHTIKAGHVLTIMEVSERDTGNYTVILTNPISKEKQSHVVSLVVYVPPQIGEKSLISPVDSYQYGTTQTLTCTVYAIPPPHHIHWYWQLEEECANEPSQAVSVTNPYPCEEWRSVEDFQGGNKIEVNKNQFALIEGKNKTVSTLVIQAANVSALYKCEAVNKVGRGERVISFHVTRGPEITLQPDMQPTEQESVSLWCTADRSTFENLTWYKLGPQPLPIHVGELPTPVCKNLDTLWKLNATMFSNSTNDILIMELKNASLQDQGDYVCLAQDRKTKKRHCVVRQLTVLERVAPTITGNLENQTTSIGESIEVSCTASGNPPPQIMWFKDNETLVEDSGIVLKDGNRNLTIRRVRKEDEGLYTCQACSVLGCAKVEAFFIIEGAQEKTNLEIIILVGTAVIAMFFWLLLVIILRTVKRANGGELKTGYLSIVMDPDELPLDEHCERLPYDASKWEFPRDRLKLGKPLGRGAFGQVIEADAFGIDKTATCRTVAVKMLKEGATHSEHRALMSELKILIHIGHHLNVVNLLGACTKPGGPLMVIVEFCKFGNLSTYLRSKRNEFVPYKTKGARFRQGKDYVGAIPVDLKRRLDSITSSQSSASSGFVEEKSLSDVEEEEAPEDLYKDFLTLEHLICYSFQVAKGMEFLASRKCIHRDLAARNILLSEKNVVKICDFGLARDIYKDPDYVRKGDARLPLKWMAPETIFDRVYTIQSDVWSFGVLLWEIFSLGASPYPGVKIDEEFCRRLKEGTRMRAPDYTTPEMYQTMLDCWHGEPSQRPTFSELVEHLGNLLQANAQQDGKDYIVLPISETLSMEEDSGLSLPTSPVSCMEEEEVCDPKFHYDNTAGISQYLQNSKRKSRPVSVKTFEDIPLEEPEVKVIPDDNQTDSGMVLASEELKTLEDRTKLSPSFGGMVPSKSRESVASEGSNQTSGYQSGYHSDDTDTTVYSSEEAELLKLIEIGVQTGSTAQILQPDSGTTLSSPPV
Sequence of Phosphatidylinositol 3-kinase C2 domain-containing subunit gamma (Homo sapiens) (O75747 whole entry, the tested form may be a part): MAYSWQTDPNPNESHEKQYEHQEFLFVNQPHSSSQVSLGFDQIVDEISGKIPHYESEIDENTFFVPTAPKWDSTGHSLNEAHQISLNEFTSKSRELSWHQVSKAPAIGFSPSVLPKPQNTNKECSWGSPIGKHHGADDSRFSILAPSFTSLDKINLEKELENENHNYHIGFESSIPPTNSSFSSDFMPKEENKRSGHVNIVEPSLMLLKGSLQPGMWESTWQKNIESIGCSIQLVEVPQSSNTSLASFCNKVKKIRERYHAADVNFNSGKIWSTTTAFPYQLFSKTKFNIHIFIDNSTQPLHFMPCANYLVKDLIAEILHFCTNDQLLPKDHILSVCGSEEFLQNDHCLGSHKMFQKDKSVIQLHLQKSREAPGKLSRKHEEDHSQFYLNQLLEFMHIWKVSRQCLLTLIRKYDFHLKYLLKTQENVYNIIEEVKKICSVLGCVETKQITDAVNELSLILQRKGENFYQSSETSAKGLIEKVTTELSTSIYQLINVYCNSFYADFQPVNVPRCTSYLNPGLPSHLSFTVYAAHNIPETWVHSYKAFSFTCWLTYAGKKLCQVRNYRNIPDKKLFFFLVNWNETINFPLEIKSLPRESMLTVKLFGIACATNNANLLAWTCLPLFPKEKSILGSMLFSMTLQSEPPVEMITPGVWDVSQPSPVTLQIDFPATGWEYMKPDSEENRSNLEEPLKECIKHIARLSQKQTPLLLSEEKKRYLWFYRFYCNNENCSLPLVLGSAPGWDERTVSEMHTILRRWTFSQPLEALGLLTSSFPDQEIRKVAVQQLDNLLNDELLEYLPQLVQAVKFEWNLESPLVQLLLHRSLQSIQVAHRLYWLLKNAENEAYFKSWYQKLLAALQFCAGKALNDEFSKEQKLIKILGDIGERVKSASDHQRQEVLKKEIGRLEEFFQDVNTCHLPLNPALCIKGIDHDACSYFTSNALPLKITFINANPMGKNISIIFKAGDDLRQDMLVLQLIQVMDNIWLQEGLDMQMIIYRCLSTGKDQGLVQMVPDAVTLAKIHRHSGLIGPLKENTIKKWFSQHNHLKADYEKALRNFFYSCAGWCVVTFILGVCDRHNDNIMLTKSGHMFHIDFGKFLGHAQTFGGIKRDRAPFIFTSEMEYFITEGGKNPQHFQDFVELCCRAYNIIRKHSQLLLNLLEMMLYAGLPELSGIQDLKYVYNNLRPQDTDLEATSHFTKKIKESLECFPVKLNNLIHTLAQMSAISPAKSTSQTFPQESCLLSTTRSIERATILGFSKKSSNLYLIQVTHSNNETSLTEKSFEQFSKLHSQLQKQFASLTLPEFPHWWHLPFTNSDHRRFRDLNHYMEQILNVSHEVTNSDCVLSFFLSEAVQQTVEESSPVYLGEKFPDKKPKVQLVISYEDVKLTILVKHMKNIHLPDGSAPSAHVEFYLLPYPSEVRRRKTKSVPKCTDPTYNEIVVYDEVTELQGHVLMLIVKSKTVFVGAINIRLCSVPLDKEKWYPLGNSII
Sequence of Mitogen-activated protein kinase kinase kinase 1 (Homo sapiens) (Q13233 whole entry): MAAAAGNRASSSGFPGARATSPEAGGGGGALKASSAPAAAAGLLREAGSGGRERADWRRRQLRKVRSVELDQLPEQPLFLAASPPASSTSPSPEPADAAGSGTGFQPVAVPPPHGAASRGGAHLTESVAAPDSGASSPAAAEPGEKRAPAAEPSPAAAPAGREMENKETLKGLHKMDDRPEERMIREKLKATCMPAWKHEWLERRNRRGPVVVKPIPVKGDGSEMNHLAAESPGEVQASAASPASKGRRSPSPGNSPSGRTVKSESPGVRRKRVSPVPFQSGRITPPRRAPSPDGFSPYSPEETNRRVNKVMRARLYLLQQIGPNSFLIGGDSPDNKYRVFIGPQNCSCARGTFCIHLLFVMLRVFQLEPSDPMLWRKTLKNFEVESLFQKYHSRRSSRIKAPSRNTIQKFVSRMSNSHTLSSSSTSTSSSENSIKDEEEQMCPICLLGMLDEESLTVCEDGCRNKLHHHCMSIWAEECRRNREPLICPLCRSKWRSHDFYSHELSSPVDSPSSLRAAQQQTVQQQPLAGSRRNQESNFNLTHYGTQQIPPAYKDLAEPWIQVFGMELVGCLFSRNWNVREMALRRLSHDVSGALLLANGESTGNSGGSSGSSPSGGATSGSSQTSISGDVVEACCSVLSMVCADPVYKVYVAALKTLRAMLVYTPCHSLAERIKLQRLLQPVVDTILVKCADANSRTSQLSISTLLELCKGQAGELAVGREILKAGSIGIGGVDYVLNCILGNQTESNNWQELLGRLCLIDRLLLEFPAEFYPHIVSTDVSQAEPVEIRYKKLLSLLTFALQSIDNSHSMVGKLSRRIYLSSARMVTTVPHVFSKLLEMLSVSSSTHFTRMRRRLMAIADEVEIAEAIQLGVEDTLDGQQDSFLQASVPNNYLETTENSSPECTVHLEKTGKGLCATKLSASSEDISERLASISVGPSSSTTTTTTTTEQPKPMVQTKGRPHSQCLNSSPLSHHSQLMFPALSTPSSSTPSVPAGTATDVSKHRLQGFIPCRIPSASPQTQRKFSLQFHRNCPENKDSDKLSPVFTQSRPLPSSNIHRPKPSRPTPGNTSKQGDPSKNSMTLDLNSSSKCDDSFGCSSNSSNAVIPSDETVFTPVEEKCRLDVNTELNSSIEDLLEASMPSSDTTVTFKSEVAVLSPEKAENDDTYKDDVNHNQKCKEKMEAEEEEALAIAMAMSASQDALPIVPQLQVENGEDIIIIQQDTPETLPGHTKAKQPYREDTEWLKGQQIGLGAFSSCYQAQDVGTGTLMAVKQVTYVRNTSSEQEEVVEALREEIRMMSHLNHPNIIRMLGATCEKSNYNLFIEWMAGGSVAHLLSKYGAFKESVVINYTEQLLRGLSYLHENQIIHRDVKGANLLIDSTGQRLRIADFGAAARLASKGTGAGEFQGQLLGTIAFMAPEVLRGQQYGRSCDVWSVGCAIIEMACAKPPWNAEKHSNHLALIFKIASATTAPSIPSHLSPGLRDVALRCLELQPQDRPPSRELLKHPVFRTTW
Sequence of Serine/threonine-protein kinase Nek7 (Homo sapiens) (Q8TDX7 whole entry, looked up): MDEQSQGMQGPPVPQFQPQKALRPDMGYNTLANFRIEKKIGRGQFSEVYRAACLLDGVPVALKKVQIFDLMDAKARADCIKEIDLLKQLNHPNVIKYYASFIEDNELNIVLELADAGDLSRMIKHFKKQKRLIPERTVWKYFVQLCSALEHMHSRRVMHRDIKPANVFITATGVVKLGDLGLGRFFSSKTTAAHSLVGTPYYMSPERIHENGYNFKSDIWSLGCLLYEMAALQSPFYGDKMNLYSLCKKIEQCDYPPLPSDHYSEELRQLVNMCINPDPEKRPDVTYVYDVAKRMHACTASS
Sequence of Cyclin-dependent kinase 7 (Homo sapiens) (P50613 whole entry): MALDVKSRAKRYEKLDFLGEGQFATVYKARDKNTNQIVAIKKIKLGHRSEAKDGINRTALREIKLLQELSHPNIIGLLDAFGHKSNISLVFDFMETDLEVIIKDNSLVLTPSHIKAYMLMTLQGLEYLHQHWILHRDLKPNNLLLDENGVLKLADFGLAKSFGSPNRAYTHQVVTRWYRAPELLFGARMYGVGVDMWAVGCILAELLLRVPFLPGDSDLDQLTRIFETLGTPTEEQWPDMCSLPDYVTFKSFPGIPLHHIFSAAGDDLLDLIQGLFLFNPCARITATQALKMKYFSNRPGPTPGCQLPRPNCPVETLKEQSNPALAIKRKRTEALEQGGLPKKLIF

O=C(NCc1ncc(C(F)(F)F)cc1Cl)c1ccc2c(c1)C1(CCS(=O)(=O)CC1)[C@H](C1CC1)N2S(=O)(=O)c1ccc(F)cc1 [BAY-784]
inactive: residual activity [1] 84% | residual activity [2] 100% | residual activity [3] 83% | residual activity [4] 78% | residual activity [5] 100% | residual activity [6] 100% | residual activity [7] 92% | residual activity [8] 100% | inhibition [9] -0.32% | residual activity [10] 72% | inhibition [11] -8.26% | residual activity [12] 87% | residual activity [13] 92% | residual activity [14] 100% | residual activity [15] 100% | inhibition [16] -8.16% | residual activity [17] 66% | residual activity [18] 88% | residual activity [19] 63% | residual activity [20] 87% | residual activity [21] 100% | residual activity [22] 100% | residual activity [23] 71% | residual activity [24] 100% | residual activity [25] 75% | residual activity [26] 64% | residual activity [27] 98% | residual activity [28] 92% | residual activity [29] 89% | residual activity [30] 100% | residual activity [31] 94% | residual activity [32] 100% | residual activity [33] 100% | residual activity [34] 100% | residual activity [35] 92% | residual activity [36] 100% | residual activity [37] 80% | residual activity [38] 100% | residual activity [39] 100%

O=C(NCc1ncc(C(F)(F)F)cc1Cl)c1ccc2c(c1)C1(CCS(=O)(=O)CC1)[C@@H](C1CC1)N2S(=O)(=O)c1ccc(F)cc1 [BAY-786]
inactive: residual activity [1] 97% | residual activity [2] 92% | residual activity [3] 80% | residual activity [4] 78% | residual activity [5] 100% | residual activity [6] 100% | residual activity [7] 86% | residual activity [8] 100% | inhibition [9] 1.7% | residual activity [10] 96% | inhibition [11] 6.92% | residual activity [12] 71% | residual activity [13] 89% | residual activity [14] 100% | residual activity [15] 93% | inhibition [16] -4.83% | residual activity [17] 67% | residual activity [18] 85% | residual activity [19] 68% | residual activity [20] 85% | residual activity [21] 79% | residual activity [22] 86% | residual activity [23] 86% | residual activity [24] 91% | residual activity [25] 75% | residual activity [26] 56% | residual activity [27] 72% | residual activity [28] 100% | residual activity [29] 89% | residual activity [30] 100% | residual activity [31] 82% | residual activity [32] 100% | residual activity [33] 95% | residual activity [34] 97% | residual activity [35] 81% | residual activity [36] 65% | residual activity [37] 83% | residual activity [38] 100% | residual activity [39] 100%
